# Tests used:
# Assay type in all cases: in vivo, human
# [1] = test system: subjects with occasional constipation; assay: Severity of constipation, abdominal bloating and abdominal discomfort during 6 and 12 months treatment (Example 1); details: 48 μg/day, 6 months and 12 months treatment
# Method: Multi-center, open-label study was performed to evaluate the safety of 48 μg of Compound A (13,14-dihydro-15-keto-16,16-difluoro-PGE1) (24 μg of Compound A b.i.d) when administered daily for 24 weeks (6 months) or 48 weeks (12 months) to subjects with occasional constipation. […] After 14-day drug-free washout period, they received 48 μg of Compound A (24 μg of Compound A b.i.d) orally for 48 weeks.
# Each parameter (Severity of Constipation, Abdominal bloating or Abdominal discomfort) was evaluated on the scale of: 0 (absent), 1 (mild), 2 (moderate), 3 (severe) and 4 (very severe) in the patients during 6 months (n=246) or 12 months (n=304) treatments.
# [2] = test system: patients with chronic constipation; assay: Randomized withdrawal study, post-treatment response after 4 weeks of active treatment (Example 2)
# Method: Multi-center, double-blind, randomized, placebo-controlled study was performed to assess post-treatment response, in a portion of the total population, after four (4) weeks of active treatment (48 μg Compound A total daily dose) and three (3) weeks randomized withdrawal period. […] After 14-day drug-free washout period, they received orally 48 μg (total daily dose) of Compound A for 28 days followed by either 0 or 48 μg (total daily dose) of Compound A for 21 days.
# In this study, the following parameters were evaluated. • 1) Bowel movements per week • 2) Abdominal bloating • 3) Abdominal discomfort • 4) Severity of Constipation • 5) Straining • 6) Consistency
# Each parameter (Abdominal bloating, Abdominal discomfort, Severity of Constipation or Straining) was evaluated on the scale of: 0 (absent), 1 (mild), 2 (moderate), 3 (severe) and 4 (very severe) in the patients. Consistency was evaluated on a scale of: 0 (very loose), 1 (loose), 2 (normal), 3 (hard) and 4 (very hard, little balls)
# [3] = test system: patients with irritable bowel syndrome (IBS); assay: 48-week treatment of IBS patients: abdominal discomfort, abdominal bloating, severity of constipation (Example 3); set-up: key to Abdominal discomfort, Change from Baseline, Median / Abdominal bloating, Change from Baseline, Median: change on 0 (absent) to 4 (very severe) scale; key to Severity of Constipation, Change from Baseline, Median: change on 0 (very loose) to 4 (very hard) scale; details: for Abdominal bloating, Mean ± SD / Abdominal bloating, Median / Abdominal discomfort, Mean ± SD / Abdominal discomfort, Median / Severity of Constipation, Mean ± SD / Severity of Constipation, Median: scale 0-4
# Method: Patients with irritable bowel syndrome (IBS) were treated with 48 μg of Compound A (24 μg of Compound A b.i.d) for 48 weeks.
# In this study, we evaluated the following parameters. • 1) Abdominal discomfort • 2) Abdominal bloating • 3) Severity of Constipation
# Each of Abdominal discomfort and Abdominal bloating was evaluated on a scale of: 0 (absent), 1 (mild), 2 (moderate), 3 (severe) and 4 (very severe) in the patients. Severity of Constipation was evaluated on a scale of: 0 (very loose), 1: (loose), 2: (normal), 3 (hard), 4 (very hard) in the patients.
# [4] = test system: male and female patients with occasional constipation; assay: Weekly number of spontaneous bowel movements in male vs. female patients (Example 4); details: 48 μg/day, 4 weeks
# Method: Multi-center, parallel-group, double-blind, placebo-controlled study was performed to compare the effect of Compound A on the weekly number of spontaneous bowel movements in male and female patients. Male and female patients with occasional constipation were received 48 μg (total daily dose) of Compound A (24 μg of Compound A b.i.d) for 4 weeks. The bowel movements in the patient were recorded during the treatment.
# [5] = 48 μg/day for 28 days, then 3 weeks withdrawal
smiles,measurement,setting,value
"CCCCC(F)(F)C(=O)CCC1C(O)CC(=O)C1CCCCCCC(=O)O (stereo not shown) [Compound A, 13,14-dihydro-15-keto-16,16-difluoro-PGE1]","Efficacy on severity of constipation, abdominal bloating and abdominal discomfort (FIGS. 1 to 6)",[1],effective
same,Quality of life of the patients,[2]; 48 μg/day,improved
same,Efficacy after stopping the treatment (FIGS. 7 to 12),[2]; [5],sustained
same,Rebound effect after discontinuation of treatment (FIGS. 7 to 12),[2]; [5],substantially no rebound effect
same,Efficacy in IBS patients (Tables 2 to 4),"[3]; 48 μg/day, 12 months treatment",effective
same,"Abdominal bloating, Mean ± SD",[3]; Baseline,2.23 ± 0.927 (183)
same,"Abdominal bloating, Median",[3]; Baseline,2.00
same,"Abdominal discomfort, Mean ± SD",[3]; Baseline,1.95 ± 0.850 (183)
same,"Abdominal discomfort, Median",[3]; Baseline,2.00
same,"Severity of Constipation, Mean ± SD",[3]; Baseline,2.95 ± 0.751 (183)
same,"Severity of Constipation, Median",[3]; Baseline,3.00
same,"Abdominal bloating, Change from Baseline, Mean ± SD","[3]; End of Treatment, 48 μg/day",−0.73 ± 1.075 (183)
same,"Abdominal bloating, Change from Baseline, Median","[3]; End of Treatment, 48 μg/day",−1.00
same,"Abdominal discomfort, Change from Baseline, Mean ± SD","[3]; End of Treatment, 48 μg/day",−0.66 ± 1.112 (183)
same,"Abdominal discomfort, Change from Baseline, Median","[3]; End of Treatment, 48 μg/day",−1.00
same,"Severity of Constipation, Change from Baseline, Mean ± SD","[3]; End of Treatment, 48 μg/day",−1.11 ± 1.148 (183)
same,"Severity of Constipation, Change from Baseline, Median","[3]; End of Treatment, 48 μg/day",−1.00
same,"Abdominal bloating, Mean ± SD","[3]; End of Treatment, 48 μg/day",1.50 ± 1.005 (183)
same,"Abdominal bloating, Median","[3]; End of Treatment, 48 μg/day",1.00
same,"Abdominal discomfort, Mean ± SD","[3]; End of Treatment, 48 μg/day",1.28 ± 1.020 (183)
same,"Abdominal discomfort, Median","[3]; End of Treatment, 48 μg/day",1.00
same,"Severity of Constipation, Mean ± SD","[3]; End of Treatment, 48 μg/day",1.84 ± 1.120 (183)
same,"Severity of Constipation, Median","[3]; End of Treatment, 48 μg/day",2.00
same,"Abdominal bloating, Change from Baseline, Mean ± SD",[3]; Follow-Up,−0.69 ± 1.109 (121)
same,"Abdominal bloating, Change from Baseline, Median",[3]; Follow-Up,−1.00
same,"Abdominal discomfort, Change from Baseline, Mean ± SD",[3]; Follow-Up,−0.55 ± 1.080 (121)
same,"Abdominal discomfort, Change from Baseline, Median",[3]; Follow-Up,−1.00
same,"Severity of Constipation, Change from Baseline, Mean ± SD",[3]; Follow-Up,−0.88 ± 1.122 (121)
same,"Severity of Constipation, Change from Baseline, Median",[3]; Follow-Up,−1.00
same,"Abdominal bloating, Mean ± SD",[3]; Follow-Up,1.55 ± 0.957 (121)
same,"Abdominal bloating, Median",[3]; Follow-Up,2.00
same,"Abdominal discomfort, Mean ± SD",[3]; Follow-Up,1.40 ± 0.996 (121)
same,"Abdominal discomfort, Median",[3]; Follow-Up,1.00
same,"Severity of Constipation, Mean ± SD",[3]; Follow-Up,2.07 ± 0.946 (121)
same,"Severity of Constipation, Median",[3]; Follow-Up,2.00
same,"Abdominal bloating, Change from Baseline, Mean ± SD","[3]; Week 12, 48 μg/day",−0.84 ± 1.045 (135)
same,"Abdominal bloating, Change from Baseline, Median","[3]; Week 12, 48 μg/day",−1.00
same,"Abdominal discomfort, Change from Baseline, Mean ± SD","[3]; Week 12, 48 μg/day",−0.79 ± 0.993 (135)
same,"Abdominal discomfort, Change from Baseline, Median","[3]; Week 12, 48 μg/day",−1.00
same,"Severity of Constipation, Change from Baseline, Mean ± SD","[3]; Week 12, 48 μg/day",−1.16 ± 1.099 (135)
same,"Severity of Constipation, Change from Baseline, Median","[3]; Week 12, 48 μg/day",−1.00
same,"Abdominal bloating, Mean ± SD","[3]; Week 12, 48 μg/day",1.43 ± 0.919 (135)
same,"Abdominal bloating, Median","[3]; Week 12, 48 μg/day",1.00
same,"Abdominal discomfort, Mean ± SD","[3]; Week 12, 48 μg/day",1.16 ± 0.836 (135)
same,"Abdominal discomfort, Median","[3]; Week 12, 48 μg/day",1.00
same,"Severity of Constipation, Mean ± SD","[3]; Week 12, 48 μg/day",1.76 ± 1.003 (135)
same,"Severity of Constipation, Median","[3]; Week 12, 48 μg/day",2.00
same,"Abdominal bloating, Change from Baseline, Mean ± SD","[3]; Week 18, 48 μg/day",−1.07 ± 1.068 (111)
same,"Abdominal bloating, Change from Baseline, Median","[3]; Week 18, 48 μg/day",−1.00
same,"Abdominal discomfort, Change from Baseline, Mean ± SD","[3]; Week 18, 48 μg/day",−0.97 ± 1.031 (111)
same,"Abdominal discomfort, Change from Baseline, Median","[3]; Week 18, 48 μg/day",−1.00
same,"Severity of Constipation, Change from Baseline, Mean ± SD","[3]; Week 18, 48 μg/day",−1.59 ± 1.148 (111)
same,"Severity of Constipation, Change from Baseline, Median","[3]; Week 18, 48 μg/day",−2.00
same,"Abdominal bloating, Mean ± SD","[3]; Week 18, 48 μg/day",1.19 ± 0.837 (111)
same,"Abdominal bloating, Median","[3]; Week 18, 48 μg/day",1.00
same,"Abdominal discomfort, Mean ± SD","[3]; Week 18, 48 μg/day",0.98 ± 0.874 (111)
same,"Abdominal discomfort, Median","[3]; Week 18, 48 μg/day",1.00
same,"Severity of Constipation, Mean ± SD","[3]; Week 18, 48 μg/day",1.33 ± 0.985 (111)
same,"Severity of Constipation, Median","[3]; Week 18, 48 μg/day",1.00
same,"Abdominal bloating, Change from Baseline, Mean ± SD","[3]; Week 24, 48 μg/day",−0.95 ± 1.102 (107)
same,"Abdominal bloating, Change from Baseline, Median","[3]; Week 24, 48 μg/day",−1.00
same,"Abdominal discomfort, Change from Baseline, Mean ± SD","[3]; Week 24, 48 μg/day",−0.82 ± 1.035 (107)
same,"Abdominal discomfort, Change from Baseline, Median","[3]; Week 24, 48 μg/day",−1.00
same,"Severity of Constipation, Change from Baseline, Mean ± SD","[3]; Week 24, 48 μg/day",−1.40 ± 1.036 (107)
same,"Severity of Constipation, Change from Baseline, Median","[3]; Week 24, 48 μg/day",−1.00
same,"Abdominal bloating, Mean ± SD","[3]; Week 24, 48 μg/day",1.26 ± 0.915 (107)
same,"Abdominal bloating, Median","[3]; Week 24, 48 μg/day",1.00
same,"Abdominal discomfort, Mean ± SD","[3]; Week 24, 48 μg/day",1.09 ± 0.917 (107)
same,"Abdominal discomfort, Median","[3]; Week 24, 48 μg/day",1.00
same,"Severity of Constipation, Mean ± SD","[3]; Week 24, 48 μg/day",1.50 ± 0.965 (107)
same,"Severity of Constipation, Median","[3]; Week 24, 48 μg/day",1.00
same,"Abdominal bloating, Change from Baseline, Mean ± SD","[3]; Week 36, 48 μg/day",−1.00 ± 1.134 (57)
same,"Abdominal bloating, Change from Baseline, Median","[3]; Week 36, 48 μg/day",−1.00
same,"Abdominal discomfort, Change from Baseline, Mean ± SD","[3]; Week 36, 48 μg/day",−0.77 ± 0.926 (57)
same,"Abdominal discomfort, Change from Baseline, Median","[3]; Week 36, 48 μg/day",−1.00
same,"Severity of Constipation, Change from Baseline, Mean ± SD","[3]; Week 36, 48 μg/day",−1.33 ± 1.123 (57)
same,"Severity of Constipation, Change from Baseline, Median","[3]; Week 36, 48 μg/day",−1.00
same,"Abdominal bloating, Mean ± SD","[3]; Week 36, 48 μg/day",1.05 ± 0.854 (57)
same,"Abdominal bloating, Median","[3]; Week 36, 48 μg/day",1.00
same,"Abdominal discomfort, Mean ± SD","[3]; Week 36, 48 μg/day",0.93 ± 0.799 (57)
same,"Abdominal discomfort, Median","[3]; Week 36, 48 μg/day",1.00
same,"Severity of Constipation, Mean ± SD","[3]; Week 36, 48 μg/day",1.39 ± 0.921 (57)
same,"Severity of Constipation, Median","[3]; Week 36, 48 μg/day",1.00
same,"Abdominal bloating, Change from Baseline, Mean ± SD","[3]; Week 48, 48 μg/day",−0.94 ± 0.802 (52)
same,"Abdominal bloating, Change from Baseline, Median","[3]; Week 48, 48 μg/day",−1.00
same,"Abdominal discomfort, Change from Baseline, Mean ± SD","[3]; Week 48, 48 μg/day",−0.81 ± 0.908 (52)
same,"Abdominal discomfort, Change from Baseline, Median","[3]; Week 48, 48 μg/day",−1.00
same,"Severity of Constipation, Change from Baseline, Mean ± SD","[3]; Week 48, 48 μg/day",−1.37 ± 1.095 (51)
same,"Severity of Constipation, Change from Baseline, Median","[3]; Week 48, 48 μg/day",−1.00
same,"Abdominal bloating, Mean ± SD","[3]; Week 48, 48 μg/day",1.12 ± 0.832 (52)
same,"Abdominal bloating, Median","[3]; Week 48, 48 μg/day",1.00
same,"Abdominal discomfort, Mean ± SD","[3]; Week 48, 48 μg/day",0.87 ± 0.929 (52)
same,"Abdominal discomfort, Median","[3]; Week 48, 48 μg/day",1.00
same,"Severity of Constipation, Mean ± SD","[3]; Week 48, 48 μg/day",1.37 ± 0.894 (51)
same,"Severity of Constipation, Median","[3]; Week 48, 48 μg/day",1.00
same,Difference between the effects in male and female patients,[4],no significant difference
same,Effect on weekly number of spontaneous bowel movements (FIG. 13),[4]; both male and female patients,significantly effective

# — patent US8748481B2, “Method for treating gastrointestinal disorder” (Sucampo AG, priority 2004, dated 2014)
